System: 293T cells stably transfected with a BCRM-1 expression vector
Test: clonogenic assays of stably transfected 293T cells with cisplatin
Type: cell-based
Conditions: clone with the highest level of BCRM-1 vs control vector transfectants, FIG. 3
Excerpt: To investigate whether BCRM-1 could render cells resistant to DNA-damaging agents, 293T cells were stably transfected with a BCRM-1 expression vector (FIG. 3). The BCRM-1 full length EcoRI-XhoI fragment was cloned into the EcoRI-XhoI sites of the pcDNA6/Bsd vector (Clontech, Palo Alto, Calif.). 293T cells were transfected with the BCRM/bsd vector or an empty pcDNA/bsd vector, respectively, by the method described in Example 8 above; Stable transfectants were selected through serial passages in the presence of blasticidin 10 μg/ml (Clontech, Palo Alto, Calif.). These blasticidin-resistant clones were isolated and repicked using the same selection procedure. One of these clones expressed the highest level of BCRM-1 by Western blotting. It was further tested in clonogenic assays and found to be 5-10 times more resistant to DNA damaging agent cisplatin than 293T cells stably transfected with the control vector (FIG. 3).

N.N.[Cl][Pt][Cl] [cisplatin]
resistance to cisplatin of the BCRM-1 expressing clone relative to 293T cells stably transfected with the control vector: 5-10 times

Reference: patent publication US20070092877A1, “Bcrm-1 genes and uses thereof” (priority 2003, published 2007)
